ChEMBL document CHEMBL1201862, “PubChem BioAssay data set” (2004)
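Following 48 hours of exposure in 96-well plates, responses at five concentrations were used to interpolate endpoints linearly. Abbreviation: GI50, concentration required for 50% inhibition of growth.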 Activity calls are given as the source filed them. Rule as the data show it: active = GI50 up to about 1.1 µM and inactive = higher.

Key:
Assay in all cases: NCI tumour cell line growth inhibition, 48 h
786-0 = system: 786-0
A498 = system: A498
A549 = system: A549
ACHN = system: ACHN
CAKI-1 = system: CAKI-1
CCRF-CEM = system: CCRF-CEM
COLO 205 = system: COLO 205
DU-145 = system: DU-145
EKVX = system: EKVX
HCC 2998 = system: HCC 2998
HCT-116 = system: HCT-116
HCT-15 = system: HCT-15
HL-60 = system: HL-60
HOP-62 = system: HOP-62
HOP-92 = system: HOP-92
HT-29 = system: HT-29
Hs-578T = system: Hs-578T
IGROV-1 = system: IGROV-1
K562 = system: K562
KM12 = system: KM12
LOX IMVI = system: LOX IMVI
M14 = system: M14
MCF7 = system: MCF7
MDA-MB-231 = system: MDA-MB-231
MDA-MB-435 = system: MDA-MB-435
MDA-N = system: MDA-N
MOLT-4 = system: MOLT-4
Malme-3M = system: Malme-3M
NCI-H226 = system: NCI-H226
NCI-H23 = system: NCI-H23
NCI-H460 = system: NCI-H460
NCI/ADR-RES = system: NCI/ADR-RES
OVCAR-3 = system: OVCAR-3
OVCAR-4 = system: OVCAR-4
OVCAR-5 = system: OVCAR-5
OVCAR-8 = system: OVCAR-8
PC-3 = system: PC-3
RPMI-8226 = system: RPMI-8226
RXF 393 = system: RXF 393
SF-268 = system: SF-268
SF-295 = system: SF-295
SF-539 = system: SF-539
SK-MEL-28 = system: SK-MEL-28
SK-MEL-2 = system: SK-MEL-2
SK-OV-3 = system: SK-OV-3
SN12C = system: SN12C
SNB-19 = system: SNB-19
SNB-75 = system: SNB-75
SR = system: SR
SW-620 = system: SW-620
T47D = system: T47D
TK-10 = system: TK-10
U-251 = system: U-251
UACC-257 = system: UACC-257
UACC-62 = system: UACC-62
UO-31 = system: UO-31

O=C(CN1CCCCC1)c1ccc2c(c1)Sc1ccccc1O2
GI50 (786-0): 14.8 µM (inactive)
GI50 (A498): 16 µM (inactive)
GI50 (A549): 14.2 µM (inactive)
GI50 (ACHN): 14.1 µM (inactive)
GI50 (CAKI-1): 18.3 µM (inactive)
GI50 (CCRF-CEM): 12.6 µM (inactive)
GI50 (COLO 205): 7.73 µM (inactive)
GI50 (DU-145): 20.9 µM (inactive)
GI50 (EKVX): 17.1 µM (inactive)
GI50 (HCC 2998): 15.5 µM (inactive)
GI50 (HCT-116): 14.4 µM (inactive)
GI50 (HCT-15): 11 µM
GI50 (HL-60): 14.2 µM (inactive)
GI50 (HOP-62): 16.1 µM (inactive)
GI50 (HOP-92): 7.64 µM (inactive)
GI50 (HT-29): 10.9 µM (inactive)
GI50 (Hs-578T): 5.18 µM (inactive)
GI50 (IGROV-1): 10.6 µM (inactive)
GI50 (K562): 57 µM (inactive)
GI50 (KM12): 16 µM (inactive)
GI50 (LOX IMVI): 10.2 µM (inactive)
GI50 (M14): 14.1 µM (inactive)
GI50 (MCF7): 15.9 µM (inactive)
GI50 (MDA-MB-231): 16.7 µM (inactive)
GI50 (MDA-MB-435): 14.5 µM (inactive)
GI50 (MDA-N): 15.8 µM (inactive)
GI50 (MOLT-4): 23.1 µM (inactive)
GI50 (Malme-3M): 17.6 µM (inactive)
GI50 (NCI-H226): 14.2 µM (inactive)
GI50 (NCI-H23): 13.1 µM (inactive)
GI50 (NCI-H460): 14.1 µM (inactive)
GI50 (NCI/ADR-RES): 16.7 µM (inactive)
GI50 (OVCAR-3): 15.3 µM (inactive)
GI50 (OVCAR-4): 13 µM (inactive)
GI50 (OVCAR-5): 15 µM (inactive)
GI50 (OVCAR-8): 16.9 µM (inactive)
GI50 (PC-3): 11.6 µM (inactive)
GI50 (RPMI-8226): 30.8 µM (inactive)
GI50 (RXF 393): 4.12 µM (inactive)
GI50 (SF-268): 17.5 µM (inactive)
GI50 (SF-295): 15.7 µM (inactive)
GI50 (SF-539): 14.3 µM (inactive)
GI50 (SK-MEL-28): 18.7 µM (inactive)
GI50 (SK-MEL-2): 18.7 µM (inactive)
GI50 (SK-OV-3): 15.5 µM (inactive)
GI50 (SN12C): 19.2 µM (inactive)
GI50 (SNB-19): 13.7 µM (inactive)
GI50 (SNB-75): 11.6 µM (inactive)
GI50 (SR): 18.4 µM (inactive)
GI50 (SW-620): 17.8 µM (inactive)
GI50 (T47D): 22.8 µM (inactive)
GI50 (TK-10): 18.9 µM (inactive)
GI50 (U-251): 15.5 µM (inactive)
GI50 (UACC-257): 18.5 µM (inactive)
GI50 (UACC-62): 11.5 µM (inactive)
GI50 (UO-31): 10.4 µM (inactive)
